Data on two molecules can be found in patent US20170190705A1, “Compositions and Methods for Inhibiting BMP” (THE BRIGHAM AND WOMAN'S HOSPITAL, INC., priority 2014, published 2017).

Assay [1] deals with IGF1R (Homo sapiens, UniProt P08069). The assay is described as follows: Kinome profiling IGF1R. The assay is classed as biochemical. As to conditions: read-out: Inhibitory activity IGF1R; for inhibition at 0.1 µM: 100 nM. As to the method: (§1) . The kinome-wide selectivity was determined following the methods previously reported by Mohedas et al., ACS Chem Biol 2013, 8, 1291-1302 and Sanvitale et al., PLoS One 2013, 8, e62721.
IGF1R, sequence (P08069 31-1367): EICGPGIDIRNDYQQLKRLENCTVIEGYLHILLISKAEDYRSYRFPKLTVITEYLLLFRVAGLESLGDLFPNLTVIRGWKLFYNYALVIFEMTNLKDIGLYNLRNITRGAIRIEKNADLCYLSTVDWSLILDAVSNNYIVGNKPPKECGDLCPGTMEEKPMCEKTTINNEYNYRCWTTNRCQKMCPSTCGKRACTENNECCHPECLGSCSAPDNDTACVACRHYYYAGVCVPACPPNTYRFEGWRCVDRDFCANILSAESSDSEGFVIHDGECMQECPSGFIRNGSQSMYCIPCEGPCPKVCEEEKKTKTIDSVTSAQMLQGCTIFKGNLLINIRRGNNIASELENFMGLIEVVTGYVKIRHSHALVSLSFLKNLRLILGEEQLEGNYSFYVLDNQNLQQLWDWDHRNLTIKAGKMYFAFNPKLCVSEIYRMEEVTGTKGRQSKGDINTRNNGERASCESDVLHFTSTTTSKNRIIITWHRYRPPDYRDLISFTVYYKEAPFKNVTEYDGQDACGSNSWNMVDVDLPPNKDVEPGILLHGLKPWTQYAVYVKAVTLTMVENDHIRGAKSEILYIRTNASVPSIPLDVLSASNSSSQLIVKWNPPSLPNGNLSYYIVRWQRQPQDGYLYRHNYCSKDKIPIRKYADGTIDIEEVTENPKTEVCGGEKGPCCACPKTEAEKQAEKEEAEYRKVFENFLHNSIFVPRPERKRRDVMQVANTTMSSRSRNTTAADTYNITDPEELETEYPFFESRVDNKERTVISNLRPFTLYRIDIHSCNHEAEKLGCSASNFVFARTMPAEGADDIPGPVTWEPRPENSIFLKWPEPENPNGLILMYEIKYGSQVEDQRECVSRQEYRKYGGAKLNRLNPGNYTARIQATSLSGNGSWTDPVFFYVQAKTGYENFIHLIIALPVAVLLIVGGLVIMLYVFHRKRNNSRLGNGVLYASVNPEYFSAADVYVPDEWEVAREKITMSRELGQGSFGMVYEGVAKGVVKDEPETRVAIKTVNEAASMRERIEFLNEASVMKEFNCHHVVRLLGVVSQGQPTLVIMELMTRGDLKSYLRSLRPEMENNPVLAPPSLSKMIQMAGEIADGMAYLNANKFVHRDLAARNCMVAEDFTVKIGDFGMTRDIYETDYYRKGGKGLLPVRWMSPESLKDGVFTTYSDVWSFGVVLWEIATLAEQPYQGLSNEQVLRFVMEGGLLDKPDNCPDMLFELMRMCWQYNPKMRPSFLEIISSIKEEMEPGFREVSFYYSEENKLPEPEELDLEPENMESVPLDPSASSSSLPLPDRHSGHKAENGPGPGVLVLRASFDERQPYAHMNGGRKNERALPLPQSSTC

Assay [2] has as its target P38α (Homo sapiens, UniProt Q16539). Put plainly: Kinome profiling P38α. The format is biochemical. The following applies: read-out: Inhibitory activity P38α; for inhibition at 0.1 µM: 100 nM. As to the method: as §1
For assay [3], the target named is PAK6 (Homo sapiens, UniProt Q9NQU5). The assay is described as follows: Kinome profiling PAK6. The assay is classed as biochemical. As to conditions: read-out: Inhibitory activity PAK6; for inhibition at 0.1 µM: 100 nM. On the procedure: as §1
PAK6, sequence (Q9NQU5 whole entry): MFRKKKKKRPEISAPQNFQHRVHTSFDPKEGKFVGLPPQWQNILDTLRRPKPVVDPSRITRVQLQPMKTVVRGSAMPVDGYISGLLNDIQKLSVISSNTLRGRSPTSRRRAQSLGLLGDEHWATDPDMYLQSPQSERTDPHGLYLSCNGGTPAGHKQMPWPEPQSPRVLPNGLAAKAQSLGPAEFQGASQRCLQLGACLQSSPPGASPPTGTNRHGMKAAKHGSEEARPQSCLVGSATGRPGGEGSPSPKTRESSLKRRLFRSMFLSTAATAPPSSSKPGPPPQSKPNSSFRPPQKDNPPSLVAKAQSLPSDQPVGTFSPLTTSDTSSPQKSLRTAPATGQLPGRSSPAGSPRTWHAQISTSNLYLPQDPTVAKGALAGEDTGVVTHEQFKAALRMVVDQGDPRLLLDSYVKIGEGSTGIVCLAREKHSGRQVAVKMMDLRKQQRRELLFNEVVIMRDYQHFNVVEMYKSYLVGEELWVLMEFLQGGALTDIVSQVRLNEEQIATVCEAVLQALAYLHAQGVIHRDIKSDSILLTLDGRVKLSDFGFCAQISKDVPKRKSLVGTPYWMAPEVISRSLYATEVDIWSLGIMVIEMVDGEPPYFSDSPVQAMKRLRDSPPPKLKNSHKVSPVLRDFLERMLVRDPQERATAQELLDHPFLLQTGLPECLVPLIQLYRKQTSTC
In assay [4] the target is T1, caALK2 (Homo sapiens, UniProt Q04771, Q207D).
T1 construct: expressed in transfected cells; host or cells: C2C12 BRE-Luc cells infected with adenovirus (MOI 100)
Put plainly: Luciferase reporter assay constitutively active ALK2. The format is cell-based. As to the method: The cells were incubated for 1 h (37° C. and 10% CO2) and allowed to settle and attach. Compounds of interest or DMSO were diluted in DMEM and added at final compound concentrations of 1 nM to 10 μM. Cells were then incubated for 30 min. Adenovirus expressing constitutively active BMP and TGF-β type I receptors (Ad.caALK1-5), generously provided by Dr. Akiko Hata (University of to California at San Francisco), were added to achieve a multiplicity of infection (MOI) of 100. Plates were incubated overnight at 37° C. Cell viability was assayed with an MIT (3-(4,5-dimethylthiazol-2-yl)-2,5-diphenyl tetrazolium bromide) colorimetric assay (Promega) per the manufacturer's instructions. Media was discarded, and firefly luciferase activity was measured (Promega) according to manufacturer's protocol. Light output was measured using a Spectramax L luminometer (Molecular Devices) with an integration time of one second per well. Data was normalized to 100% of incremental BRE-Luc activity due to adenoviruses specifying caALK1, 2, or 3, or the incremental CAGA-Luc activity due to adenoviruses specifying caALK4 or 5.

Assay [5] deals with SRPK1 (Homo sapiens, UniProt Q96SB4). The assay is described as follows: Kinome profiling SRPK1. The assay is classed as biochemical. The following applies: read-out: Inhibitory activity SRPK1; for inhibition at 0.1 µM: 100 nM. As to the method:
as §1

Assay [6] has as its target T2, FLT-3 (Homo sapiens, UniProt P36888).
T2 sequence (P36888 27-993): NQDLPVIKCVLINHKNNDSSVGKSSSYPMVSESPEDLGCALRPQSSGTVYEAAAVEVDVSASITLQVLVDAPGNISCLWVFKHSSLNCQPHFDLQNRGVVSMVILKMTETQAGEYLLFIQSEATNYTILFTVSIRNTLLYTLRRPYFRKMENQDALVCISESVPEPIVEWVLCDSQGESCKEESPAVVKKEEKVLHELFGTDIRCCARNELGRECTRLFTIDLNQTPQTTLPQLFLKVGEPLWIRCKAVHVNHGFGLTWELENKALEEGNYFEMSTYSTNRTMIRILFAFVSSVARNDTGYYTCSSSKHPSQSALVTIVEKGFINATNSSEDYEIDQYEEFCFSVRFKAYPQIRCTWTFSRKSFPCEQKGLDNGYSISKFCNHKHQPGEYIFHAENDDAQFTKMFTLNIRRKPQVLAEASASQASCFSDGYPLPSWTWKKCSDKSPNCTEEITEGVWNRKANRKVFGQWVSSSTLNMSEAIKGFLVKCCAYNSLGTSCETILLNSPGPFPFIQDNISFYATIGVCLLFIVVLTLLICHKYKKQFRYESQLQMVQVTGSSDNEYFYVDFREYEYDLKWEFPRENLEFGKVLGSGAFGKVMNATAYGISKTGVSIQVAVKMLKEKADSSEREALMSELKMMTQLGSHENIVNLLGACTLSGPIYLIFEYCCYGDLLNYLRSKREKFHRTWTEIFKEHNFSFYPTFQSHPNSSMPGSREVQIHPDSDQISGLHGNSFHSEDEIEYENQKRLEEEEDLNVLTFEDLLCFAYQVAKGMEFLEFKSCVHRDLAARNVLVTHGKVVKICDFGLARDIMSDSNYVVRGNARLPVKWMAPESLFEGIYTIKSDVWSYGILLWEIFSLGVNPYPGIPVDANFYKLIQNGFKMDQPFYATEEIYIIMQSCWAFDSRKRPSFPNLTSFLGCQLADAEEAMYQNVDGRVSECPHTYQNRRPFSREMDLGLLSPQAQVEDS
Put plainly: Kinome profiling FLT-3. The format is biochemical. The following applies: read-out: Inhibitory activity FLT-3; for inhibition at 0.1 µM: 100 nM. As to the method: as §1

Assay [7] addresses ARG (ABL2) (Homo sapiens, UniProt P42684). The assay is described as follows: Kinome profiling ARG (ABL2). The assay is classed as biochemical. The following applies: for inhibition at 0.1 µM: 100 nM. As to the method: as §1
Assay [8] addresses T3, ITK (Homo sapiens, UniProt Q08881).
T3 sequence (Q08881 1-620): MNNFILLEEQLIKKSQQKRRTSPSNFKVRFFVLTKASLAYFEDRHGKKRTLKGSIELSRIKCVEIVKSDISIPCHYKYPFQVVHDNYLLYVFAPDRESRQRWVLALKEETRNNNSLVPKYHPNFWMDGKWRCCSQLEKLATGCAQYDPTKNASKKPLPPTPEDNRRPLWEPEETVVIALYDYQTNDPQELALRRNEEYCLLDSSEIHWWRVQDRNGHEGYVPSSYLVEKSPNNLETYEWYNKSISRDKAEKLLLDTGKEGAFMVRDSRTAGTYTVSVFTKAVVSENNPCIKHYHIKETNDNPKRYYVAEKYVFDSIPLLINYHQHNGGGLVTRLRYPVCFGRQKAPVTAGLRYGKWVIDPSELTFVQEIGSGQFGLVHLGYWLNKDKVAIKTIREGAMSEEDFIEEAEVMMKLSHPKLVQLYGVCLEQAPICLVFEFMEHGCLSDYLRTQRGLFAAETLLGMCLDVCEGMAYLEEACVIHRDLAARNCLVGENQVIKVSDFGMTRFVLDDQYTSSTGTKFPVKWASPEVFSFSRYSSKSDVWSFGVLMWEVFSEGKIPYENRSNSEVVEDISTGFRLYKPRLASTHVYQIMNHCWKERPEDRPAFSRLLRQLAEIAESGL
The assay is described as follows: Kinome profiling ITK. The format is biochemical. The following applies: read-out: Inhibitory activity ITK; for inhibition at 0.1 µM: 100 nM. On the procedure:
as §1

For assay [9], the target named is BRAF (Homo sapiens, UniProt P15056). The assay is described as follows: Kinome profiling BRAF. The format is biochemical. The following applies: read-out: Inhibitory activity BRAF; for inhibition at 0.1 µM: 100 nM. As to the method: as §1
BRAF, sequence (P15056 whole entry): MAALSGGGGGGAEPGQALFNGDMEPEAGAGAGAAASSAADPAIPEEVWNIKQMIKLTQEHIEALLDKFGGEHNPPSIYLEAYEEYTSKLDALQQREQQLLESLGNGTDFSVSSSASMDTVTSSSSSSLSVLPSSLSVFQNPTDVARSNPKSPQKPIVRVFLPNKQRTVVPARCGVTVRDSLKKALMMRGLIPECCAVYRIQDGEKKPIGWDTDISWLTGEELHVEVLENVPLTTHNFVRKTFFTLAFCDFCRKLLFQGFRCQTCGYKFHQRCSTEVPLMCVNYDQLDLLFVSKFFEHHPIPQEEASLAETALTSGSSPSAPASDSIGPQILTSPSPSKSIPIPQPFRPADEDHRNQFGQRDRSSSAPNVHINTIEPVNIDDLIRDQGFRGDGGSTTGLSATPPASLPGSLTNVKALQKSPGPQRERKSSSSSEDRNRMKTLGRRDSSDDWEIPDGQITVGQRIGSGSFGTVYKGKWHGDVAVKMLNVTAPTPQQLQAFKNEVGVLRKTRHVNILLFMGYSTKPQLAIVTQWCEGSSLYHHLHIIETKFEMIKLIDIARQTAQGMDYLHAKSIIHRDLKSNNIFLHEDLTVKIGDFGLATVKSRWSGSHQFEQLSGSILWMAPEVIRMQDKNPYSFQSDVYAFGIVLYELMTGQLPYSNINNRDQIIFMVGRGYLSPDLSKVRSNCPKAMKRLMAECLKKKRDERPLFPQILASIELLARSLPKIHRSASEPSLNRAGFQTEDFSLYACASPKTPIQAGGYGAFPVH
Where [10] appears, read: Table 4, read-out: Inhibitory Activity ARG.
Setting [11] is: read-out: Inhibitory activity ARG (ABL2).

The structures appear in SMILES notation. Read-outs that look alike come from different tables or passages of the source.

ARG (ABL2), sequence (P42684 whole entry): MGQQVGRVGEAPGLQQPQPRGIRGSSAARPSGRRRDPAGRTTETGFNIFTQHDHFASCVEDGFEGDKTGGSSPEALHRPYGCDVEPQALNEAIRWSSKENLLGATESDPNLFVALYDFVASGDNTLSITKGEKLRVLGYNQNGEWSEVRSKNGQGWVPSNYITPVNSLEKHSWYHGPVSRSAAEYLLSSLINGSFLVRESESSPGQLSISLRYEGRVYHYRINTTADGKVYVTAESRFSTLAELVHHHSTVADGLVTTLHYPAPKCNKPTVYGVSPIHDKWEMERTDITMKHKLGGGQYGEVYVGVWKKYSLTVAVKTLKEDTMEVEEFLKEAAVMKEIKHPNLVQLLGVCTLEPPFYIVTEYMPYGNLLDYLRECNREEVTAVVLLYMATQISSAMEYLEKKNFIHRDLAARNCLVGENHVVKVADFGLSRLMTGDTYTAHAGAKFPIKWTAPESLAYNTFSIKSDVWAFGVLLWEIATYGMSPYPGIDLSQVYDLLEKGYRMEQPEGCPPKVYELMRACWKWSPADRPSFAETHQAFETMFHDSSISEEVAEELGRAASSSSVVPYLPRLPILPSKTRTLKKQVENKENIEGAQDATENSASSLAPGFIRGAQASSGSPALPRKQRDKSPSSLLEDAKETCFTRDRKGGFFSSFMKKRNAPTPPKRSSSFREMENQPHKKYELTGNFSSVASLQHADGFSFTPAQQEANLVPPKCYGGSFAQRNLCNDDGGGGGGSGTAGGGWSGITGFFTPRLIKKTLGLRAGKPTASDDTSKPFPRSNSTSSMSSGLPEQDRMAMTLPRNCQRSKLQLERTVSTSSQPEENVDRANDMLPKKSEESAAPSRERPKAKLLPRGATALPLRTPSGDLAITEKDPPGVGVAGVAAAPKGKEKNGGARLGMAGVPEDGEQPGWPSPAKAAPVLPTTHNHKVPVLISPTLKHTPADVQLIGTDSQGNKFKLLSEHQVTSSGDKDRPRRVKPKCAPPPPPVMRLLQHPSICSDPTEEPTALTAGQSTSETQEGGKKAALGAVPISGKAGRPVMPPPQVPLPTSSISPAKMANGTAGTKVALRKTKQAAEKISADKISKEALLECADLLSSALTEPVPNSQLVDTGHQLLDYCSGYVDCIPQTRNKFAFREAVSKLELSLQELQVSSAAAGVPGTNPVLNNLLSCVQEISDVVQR
P38α, sequence (Q16539 whole entry): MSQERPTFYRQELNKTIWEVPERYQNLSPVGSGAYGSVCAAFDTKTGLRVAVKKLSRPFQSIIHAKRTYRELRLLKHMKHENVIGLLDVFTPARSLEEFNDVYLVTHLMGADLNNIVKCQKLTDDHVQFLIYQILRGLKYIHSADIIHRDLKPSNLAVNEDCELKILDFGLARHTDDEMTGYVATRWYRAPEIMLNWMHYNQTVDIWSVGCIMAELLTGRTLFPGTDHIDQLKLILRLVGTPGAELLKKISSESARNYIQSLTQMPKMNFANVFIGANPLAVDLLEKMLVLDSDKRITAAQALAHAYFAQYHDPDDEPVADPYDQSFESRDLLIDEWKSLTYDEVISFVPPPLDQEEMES
SRPK1, sequence (Q96SB4 whole entry): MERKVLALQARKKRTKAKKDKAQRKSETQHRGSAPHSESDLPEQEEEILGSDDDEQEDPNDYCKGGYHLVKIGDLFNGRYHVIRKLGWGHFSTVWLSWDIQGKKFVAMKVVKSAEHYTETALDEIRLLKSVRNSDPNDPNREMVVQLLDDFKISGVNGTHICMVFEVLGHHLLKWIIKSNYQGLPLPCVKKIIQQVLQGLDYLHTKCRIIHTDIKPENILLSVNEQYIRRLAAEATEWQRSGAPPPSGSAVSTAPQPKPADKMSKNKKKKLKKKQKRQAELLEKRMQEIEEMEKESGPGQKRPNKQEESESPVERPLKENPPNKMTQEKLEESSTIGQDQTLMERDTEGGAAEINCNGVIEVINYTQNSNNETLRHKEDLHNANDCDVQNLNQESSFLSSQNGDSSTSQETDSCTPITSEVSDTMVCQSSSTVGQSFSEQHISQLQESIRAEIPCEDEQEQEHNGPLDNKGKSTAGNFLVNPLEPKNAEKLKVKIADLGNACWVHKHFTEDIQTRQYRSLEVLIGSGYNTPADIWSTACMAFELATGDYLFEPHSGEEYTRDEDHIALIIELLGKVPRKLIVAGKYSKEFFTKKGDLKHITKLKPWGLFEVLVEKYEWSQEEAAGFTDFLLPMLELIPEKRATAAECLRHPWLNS

For `COc1cc(-c2cc(-c3ccc(N4CCNCC4)cc3)cnc2C)cc(OC)c1OC` [Compound 10, 1-(4-(6-methyl-5-(3,4,5-trimethoxyphenyl)pyridin-3-yl)phenyl)piperazine], the inhibition at 0.1 µM in [1] is 0%; in assay [2] it was -2%; in assay [3], 1%; in [5], 2%; in assay [6], 3%; in assay [7] (setting [10]) it was 17%. Besides, the inhibition at 0.1 µM in assay [7] (setting [11]) worked out at 17%; in assay [8] it was 0%; in assay [9], 0%. The inhibition at 1 µM in assay [1] was 0%; in [2], 1%; in [3], 5%; in assay [5], 2%; in assay [6] it was 18%; in assay [7] (setting [10]) it was 62%. Besides, the results for the inhibition at 1 µM in assay [7] (setting [11]), in [8] and in assay [9] were 62%, -1% and 1%, respectively. Further, the potency entry in assay [4] (comparison across multiple assays (Tables 6 and 7)) is “reduction in potency”.

Regarding `COc1cc(-c2cc(-c3ccc(N4CCNCC4)cc3)cnc2N)cc(OC)c1OC` [Compound 15, 5-(4-(piperazin-1-yl)phenyl)-3-(3,4,5-trimethoxyphenyl)pyridin-2-amine], the inhibition at 0.1 µM in assay [1] came to 2%; in assay [2], 4%; in [3], 5%; in [5], 1%; in [6], 1%; in assay [7] (setting [11]), 60%. For the same molecule, the inhibition at 0.1 µM in [8] worked out at 0%; in [9], 8%. For the same molecule, the inhibition at 1 µM was 4% in assay [1]; 9% in assay [2]; 3% in assay [3]; -1% in assay [5]; 5% in assay [6]; 81% in assay [7] (setting [11]). Moreover, the inhibition at 1 µM in assay [8] is 2%; in assay [9], 27%. The IC50 in [4] (read-out: Cell Based Assay caALK2 IC50) is 5 nM.
